Results as given in US20260317319A1, “NOVEL ERGOLINES AND METHODS OF TREATING MOOD DISORDERS” (Gilgamesh Pharma Inc., priority 2023, published 2026).
Like-named read-outs stand apart in the source and are kept apart here.

Legend:
in vitro [1] = type: in vitro ADME, mouse; settings: mouse, microsomes
Excerpt: MLM Stability Pooled MLM from male CD-1 mice (BIOIVT M00501) were used.

in vitro [2] = type: in vitro ADME, human; settings: human, microsomes
5-HT2A receptor [3] = molecular target: T1, 5-HT2A receptor (Homo sapiens, UniProt P28223); experiment: cell-based; type: cell-based; parameters: expressed in transfected cells; host or cells: HEK293, stably transfected
T1 sequence (P28223 whole entry): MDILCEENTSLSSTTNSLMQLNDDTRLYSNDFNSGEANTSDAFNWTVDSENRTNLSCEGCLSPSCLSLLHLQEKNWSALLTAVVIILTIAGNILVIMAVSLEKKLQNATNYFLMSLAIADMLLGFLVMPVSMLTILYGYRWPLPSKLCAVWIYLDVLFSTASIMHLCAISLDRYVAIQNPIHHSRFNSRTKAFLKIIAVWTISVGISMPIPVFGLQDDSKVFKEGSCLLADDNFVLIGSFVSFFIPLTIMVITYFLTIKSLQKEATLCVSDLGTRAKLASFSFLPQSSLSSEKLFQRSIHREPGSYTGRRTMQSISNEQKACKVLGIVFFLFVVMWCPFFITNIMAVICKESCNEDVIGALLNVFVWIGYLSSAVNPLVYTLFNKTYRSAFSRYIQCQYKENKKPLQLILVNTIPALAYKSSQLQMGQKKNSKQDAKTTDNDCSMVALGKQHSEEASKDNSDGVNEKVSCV
Outline: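 FLIPR Ca2+ flux agonist assay using stably transfected HEK293 (5-HT2A, 5-HT2B) or CHO cells co-expressing Gα15 (5-HT1A). Cells loaded with Fluo-4 Direct plus 2.5 mM probenecid (final) for 50 min at 37 °C, then compound added and fluorescence read.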

5-HT2B receptor = molecular target: T2, 5-HT2B receptor (Homo sapiens, UniProt P41595); experiment: cell-based; type: cell-based
T2 construct: expressed in transfected cells; host or cells: HEK293, stably transfected
T2 sequence (P41595 whole entry): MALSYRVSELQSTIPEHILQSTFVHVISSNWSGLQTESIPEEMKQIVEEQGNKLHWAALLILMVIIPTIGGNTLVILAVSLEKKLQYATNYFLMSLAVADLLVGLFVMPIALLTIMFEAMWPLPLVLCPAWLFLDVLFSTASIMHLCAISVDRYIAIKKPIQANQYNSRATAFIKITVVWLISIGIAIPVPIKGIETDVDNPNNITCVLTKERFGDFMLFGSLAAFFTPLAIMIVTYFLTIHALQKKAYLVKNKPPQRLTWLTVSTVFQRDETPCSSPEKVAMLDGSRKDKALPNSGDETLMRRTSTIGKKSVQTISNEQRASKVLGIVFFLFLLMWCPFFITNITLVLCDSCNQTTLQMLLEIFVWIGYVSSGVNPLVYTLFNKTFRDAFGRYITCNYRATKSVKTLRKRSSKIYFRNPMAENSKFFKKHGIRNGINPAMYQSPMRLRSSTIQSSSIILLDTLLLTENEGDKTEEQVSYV
Outline: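 FLIPR Tetra fluorescence read-out of calcium flux after compound addition. Receptor-expressing stable lines were used (HEK293 for 2A/2B; CHO with Gα15 for 1A), dye-loaded with Fluo-4 Direct and 2.5 mM final probenecid, 50 min at 37 °C.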

5-HT2A receptor [4] = molecular target: T1, 5-HT2A receptor; experiment: cell-based; type: cell-based; settings: for Emax: read-out: 5-HT2A Arrestin % Act @ Max Dose
Outline: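 PathHunter β-arrestin recruitment (enzyme fragment complementation): 5-HT2A fused to ProLink donor in cells co-expressing β-arrestin–β-galactosidase acceptor, seeded and held at 37° C before testing. Chemiluminescent read-out; agonist % activity = (sample RLU − vehicle)/(max control ligand − vehicle) × 100.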

5-HT1A receptor = molecular target: T3, 5-HT1A receptor (Homo sapiens, UniProt P08908); experiment: cell-based; settings: for Emax: CHO, read-out: 5-HT1A % Act @ Max Dose
T3 construct: expressed in transfected cells; host or cells: CHO cells, stably transfected
T3 sequence (P08908 1-422): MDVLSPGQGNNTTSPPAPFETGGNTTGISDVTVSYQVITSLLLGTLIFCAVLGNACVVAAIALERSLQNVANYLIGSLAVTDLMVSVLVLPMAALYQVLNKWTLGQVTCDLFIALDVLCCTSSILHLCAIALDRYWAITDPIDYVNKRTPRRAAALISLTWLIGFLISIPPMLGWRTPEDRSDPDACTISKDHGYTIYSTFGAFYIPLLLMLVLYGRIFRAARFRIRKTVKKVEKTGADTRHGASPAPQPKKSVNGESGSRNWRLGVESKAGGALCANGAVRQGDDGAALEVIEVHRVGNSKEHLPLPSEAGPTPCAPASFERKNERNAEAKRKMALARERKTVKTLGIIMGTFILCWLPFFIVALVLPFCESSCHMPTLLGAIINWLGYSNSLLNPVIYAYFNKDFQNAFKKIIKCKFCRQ
Outline: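 Using HEK293 lines for the 5-HT2 subtypes and Gα15-coupled CHO cells for 5-HT1A, compounds were tested as agonists. Fluorescent Ca2+ signal followed dye loading (Fluo-4 Direct, 2.5 mM final probenecid, 50 min, 37 °C).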

in vitro [5] = type: in vitro ADME, rat; settings: rat, microsomes
Excerpt: RLM Stability Pooled RLM from male Sprague-Dawley rats (Xenotech R1000) were used.

5-HT1B receptor = molecular target: T4, 5-HT1B receptor (Homo sapiens, UniProt P28222); experiment: cAMP accumulation functional assay at 5-HT1B; type: cell-based; settings: for Emax: read-out: 5-HT1B % Act @ Max Dose
T4 construct: expressed in transfected cells
T4 sequence (P28222 whole entry): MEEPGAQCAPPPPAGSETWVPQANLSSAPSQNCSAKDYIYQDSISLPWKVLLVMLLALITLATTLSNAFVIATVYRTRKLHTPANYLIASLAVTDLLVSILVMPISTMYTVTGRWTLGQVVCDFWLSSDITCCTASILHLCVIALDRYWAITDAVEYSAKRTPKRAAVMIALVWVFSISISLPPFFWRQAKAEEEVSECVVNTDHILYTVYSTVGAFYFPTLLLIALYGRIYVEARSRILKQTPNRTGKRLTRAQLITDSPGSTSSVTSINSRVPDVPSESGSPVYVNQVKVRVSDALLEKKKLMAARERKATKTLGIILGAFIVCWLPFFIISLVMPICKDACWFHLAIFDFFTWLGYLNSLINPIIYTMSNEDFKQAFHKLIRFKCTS
Outline: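 Agonist activity measured as cAMP accumulation in cells stably transfected with human 5-HT1B. Cells incubated 60 min at RT, then detection reagent added for a further 60 min at RT before plate reading.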

With CCN(CC)C(=O)[C@@H]1C=C2c3cccc4[nH]cc(c34)C[C@H]2N(Cc2ccccc2)C1 [Compound 82, (6aR,9R)-7-benzyl-N,N-diethyl-4,6,6a,7,8,9-hexahydroindolo[4,3-fg]quinoline-9-carboxamide] the microsomal CLint (in vitro [1]; MLM (male CD-1) 0.50 mg/mL, NADPH 1 mM, 1 μM compound, pH 7.4, 37° C., 60 min, read-out: Intrinsic clearance (Clint)) was 553 µL/min/mg, the half-life (in vitro [1]; MLM (male CD-1) 0.50 mg/mL, NADPH 1 mM, 1 μM compound, pH 7.4, 37° C., 60 min, read-out: half-life (t1/2)) was 2.5 min and the microsomal CLint (in vitro [2]; HLM 0.50 mg/mL, NADPH 1 mM, 1 μM compound, pH 7.4, 37° C., 60 min, read-out: Intrinsic clearance (Clint)) was 106 µL/min/mg. It also gave a half-life (in vitro [2]; HLM 0.50 mg/mL, NADPH 1 mM, 1 μM compound, pH 7.4, 37° C., 60 min, read-out: half-life (t1/2)) of 13 min, an Emax (5-HT2A receptor [3]; HEK293, agonist, Ca2+ flux, HEK293, max dose, read-out: 5-HT2A % Act @ Max Dose) of 61.4% and an EC50 (5-HT2A receptor [3]; agonist, Ca2+ flux, HEK293) of 422 nM. The Emax (5-HT2B receptor; HEK293, agonist, Ca2+ flux, HEK293, max dose, read-out: 5-HT2B % Act @ Max Dose) was 13.3%, the EC50 (5-HT2B receptor; agonist, Ca2+ flux, HEK293) was > 10000 nM and the EC50 (5-HT2A receptor [4]; agonist, beta-arrestin recruitment, PathHunter, read-out: 5-HT2A Arrestin EC50) was 1.73 nM. For the same molecule, the Emax (5-HT2A receptor [4]; agonist, beta-arrestin recruitment, max dose) was 26.1%, the Emax (5-HT1A receptor; agonist, Ca2+ flux, CHO cells with Gα15, max dose) was 27.8% and the EC50 (5-HT1A receptor; agonist, Ca2+ flux, CHO cells with Gα15) was 3350 nM. For the same molecule, the microsomal CLint (in vitro [5]; RLM (male Sprague-Dawley) 0.50 mg/mL, NADPH 1 mM, 1 μM compound, pH 7.4, 37° C., 60 min, read-out: Intrinsic clearance (Clint)) was 190 µL/min/mg, the half-life (in vitro [5]; RLM (male Sprague-Dawley) 0.50 mg/mL, NADPH 1 mM, 1 μM compound, pH 7.4, 37° C., 60 min, read-out: half-life (t1/2)) was 7.3 min and the EC50 (5-HT1B receptor; agonist, cAMP accumulation) was 992 nM. It also gave an Emax (5-HT1B receptor; agonist, cAMP accumulation, max dose) of 62.8%.
With CCN(CC)C(=O)[C@@H]1C=C2c3cccc4[nH]cc(c34)C[C@H]2N(C)C1 [LSD, lysergic acid diethylamide, reference compound] the “half-life (t1/2)” value (in vitro [1]; pH 7.4) was 31.3 min, the “half-life (t1/2)” value (in vitro [2]; pH 7.4) was 71.6 min and the Emax (5-HT2A receptor [3]; HEK293, read-out: 5-HT2A % Act @ Max Dose) was 108%. For the same molecule, the Emax (5-HT2B receptor; HEK293, read-out: 5-HT2B % Act @ Max Dose) was 19.3%, the “5-HT2A arrestin agonist class” value (5-HT2A receptor [4]) was “partial agonists” and the Emax (5-HT2A receptor [4]) was 52.6%. For the same molecule, the Emax (5-HT1A receptor) was 91.4%, the “half-life (t1/2)” value (in vitro [5]; pH 7.4) was 60.2 min and the Emax (5-HT1B receptor) was 98%.
